Experimental data reported in BigSolDB 2.1.

## COC(=O)c1cccc(C(=O)OC)n1
In DMSO, 293.15 K
  solubility (mole fraction): 0.0174
In DMSO, 298.15 K
  solubility (mole fraction): 0.0205
In DMSO, 303.15 K
  solubility (mole fraction): 0.0271
In DMSO, 308.15 K
  solubility (mole fraction): 0.0323
In DMSO, 313.15 K
  solubility (mole fraction): 0.0435
In DMSO, 318.15 K
  solubility (mole fraction): 0.0503
In DMSO, 323.15 K
  solubility (mole fraction): 0.0658
In THF, 278.15 K
  solubility (mole fraction): 0.00553
In THF, 283.15 K
  solubility (mole fraction): 0.00773
In THF, 288.15 K
  solubility (mole fraction): 0.00891
In THF, 293.15 K
  solubility (mole fraction): 0.0115
In THF, 298.15 K
  solubility (mole fraction): 0.0138
In THF, 303.15 K
  solubility (mole fraction): 0.0166
In THF, 308.15 K
  solubility (mole fraction): 0.0219
In THF, 313.15 K
  solubility (mole fraction): 0.0293
In THF, 318.15 K
  solubility (mole fraction): 0.0373
In THF, 323.15 K
  solubility (mole fraction): 0.046
In ethanol, 278.15 K
  solubility (mole fraction): 0.00042
In ethanol, 283.15 K
  solubility (mole fraction): 0.00068
In ethanol, 288.15 K
  solubility (mole fraction): 0.00103
In ethanol, 293.15 K
  solubility (mole fraction): 0.00147
In ethanol, 298.15 K
  solubility (mole fraction): 0.00215
In ethanol, 303.15 K
  solubility (mole fraction): 0.00323
In ethanol, 308.15 K
  solubility (mole fraction): 0.00436
In ethanol, 313.15 K
  solubility (mole fraction): 0.00576
In ethanol, 318.15 K
  solubility (mole fraction): 0.00757
In ethanol, 323.15 K
  solubility (mole fraction): 0.0101
In ethyl acetate, 278.15 K
  solubility (mole fraction): 0.00335
In ethyl acetate, 283.15 K
  solubility (mole fraction): 0.00364
In ethyl acetate, 288.15 K
  solubility (mole fraction): 0.00549
In ethyl acetate, 293.15 K
  solubility (mole fraction): 0.0082
In ethyl acetate, 298.15 K
  solubility (mole fraction): 0.0105
In ethyl acetate, 303.15 K
  solubility (mole fraction): 0.0149
In ethyl acetate, 308.15 K
  solubility (mole fraction): 0.019
In ethyl acetate, 313.15 K
  solubility (mole fraction): 0.0261
In ethyl acetate, 318.15 K
  solubility (mole fraction): 0.0326
In isopentyl acetate, 278.15 K
  solubility (mole fraction): 0.00146
In isopentyl acetate, 283.15 K
  solubility (mole fraction): 0.00192
In isopentyl acetate, 288.15 K
  solubility (mole fraction): 0.00252
In isopentyl acetate, 293.15 K
  solubility (mole fraction): 0.00334
In isopentyl acetate, 298.15 K
  solubility (mole fraction): 0.00438
In isopentyl acetate, 303.15 K
  solubility (mole fraction): 0.00576
In isopentyl acetate, 308.15 K
  solubility (mole fraction): 0.00729
In isopentyl acetate, 313.15 K
  solubility (mole fraction): 0.00944
In isopentyl acetate, 318.15 K
  solubility (mole fraction): 0.0158
In isopentyl acetate, 323.15 K
  solubility (mole fraction): 0.0216
In isopropanol, 278.15 K
  solubility (mole fraction): 0.00032
In isopropanol, 283.15 K
  solubility (mole fraction): 0.00049
In isopropanol, 288.15 K
  solubility (mole fraction): 0.00071
In isopropanol, 293.15 K
  solubility (mole fraction): 0.00116
In isopropanol, 298.15 K
  solubility (mole fraction): 0.0017
In isopropanol, 303.15 K
  solubility (mole fraction): 0.0022
In isopropanol, 308.15 K
  solubility (mole fraction): 0.0032
In isopropanol, 313.15 K
  solubility (mole fraction): 0.00414
In isopropanol, 318.15 K
  solubility (mole fraction): 0.00579
In isopropanol, 323.15 K
  solubility (mole fraction): 0.00785
In isopropyl acetate, 278.15 K
  solubility (mole fraction): 0.00191
In isopropyl acetate, 283.15 K
  solubility (mole fraction): 0.00235
In isopropyl acetate, 288.15 K
  solubility (mole fraction): 0.00343
In isopropyl acetate, 293.15 K
  solubility (mole fraction): 0.00516
In isopropyl acetate, 298.15 K
  solubility (mole fraction): 0.00721
In isopropyl acetate, 303.15 K
  solubility (mole fraction): 0.0094
In isopropyl acetate, 308.15 K
  solubility (mole fraction): 0.0117
In isopropyl acetate, 313.15 K
  solubility (mole fraction): 0.0161
In isopropyl acetate, 318.15 K
  solubility (mole fraction): 0.0202
In isopropyl acetate, 323.15 K
  solubility (mole fraction): 0.0262
In methanol, 278.15 K
  solubility (mole fraction): 0.00057
In methanol, 283.15 K
  solubility (mole fraction): 0.00092
In methanol, 288.15 K
  solubility (mole fraction): 0.00142
In methanol, 293.15 K
  solubility (mole fraction): 0.00199
In methanol, 298.15 K
  solubility (mole fraction): 0.00283
In methanol, 303.15 K
  solubility (mole fraction): 0.00425
In methanol, 308.15 K
  solubility (mole fraction): 0.0055
In methanol, 313.15 K
  solubility (mole fraction): 0.0075
In methanol, 318.15 K
  solubility (mole fraction): 0.00974
In methanol, 323.15 K
  solubility (mole fraction): 0.012
In methyl acetate, 278.15 K
  solubility (mole fraction): 0.00524
In methyl acetate, 283.15 K
  solubility (mole fraction): 0.00759
In methyl acetate, 288.15 K
  solubility (mole fraction): 0.0118
In methyl acetate, 293.15 K
  solubility (mole fraction): 0.0145
In methyl acetate, 298.15 K
  solubility (mole fraction): 0.0201
In methyl acetate, 303.15 K
  solubility (mole fraction): 0.0255
In methyl acetate, 308.15 K
  solubility (mole fraction): 0.0312
In methyl acetate, 313.15 K
  solubility (mole fraction): 0.041
In methyl acetate, 318.15 K
  solubility (mole fraction): 0.0489
In methyl acetate, 323.15 K
  solubility (mole fraction): 0.0635
In n-butyl acetate, 278.15 K
  solubility (mole fraction): 0.0015
In n-butyl acetate, 283.15 K
  solubility (mole fraction): 0.00203
In n-butyl acetate, 288.15 K
  solubility (mole fraction): 0.00286
In n-butyl acetate, 293.15 K
  solubility (mole fraction): 0.00462
In n-butyl acetate, 298.15 K
  solubility (mole fraction): 0.00671
In n-butyl acetate, 303.15 K
  solubility (mole fraction): 0.00883
In n-butyl acetate, 308.15 K
  solubility (mole fraction): 0.0113
In n-butyl acetate, 313.15 K
  solubility (mole fraction): 0.0158
In n-butyl acetate, 318.15 K
  solubility (mole fraction): 0.0201
In n-butyl acetate, 323.15 K
  solubility (mole fraction): 0.026
In n-pentyl acetate, 283.15 K
  solubility (mole fraction): 0.0027
In n-pentyl acetate, 288.15 K
  solubility (mole fraction): 0.0038
In n-pentyl acetate, 293.15 K
  solubility (mole fraction): 0.00459
In n-pentyl acetate, 298.15 K
  solubility (mole fraction): 0.00625
In n-pentyl acetate, 303.15 K
  solubility (mole fraction): 0.00851
In n-pentyl acetate, 308.15 K
  solubility (mole fraction): 0.0111
In n-pentyl acetate, 313.15 K
  solubility (mole fraction): 0.015
In n-pentyl acetate, 318.15 K
  solubility (mole fraction): 0.0189
In n-pentyl acetate, 323.15 K
  solubility (mole fraction): 0.0243
In n-propanol, 278.15 K
  solubility (mole fraction): 0.00032
In n-propanol, 283.15 K
  solubility (mole fraction): 0.0005
In n-propanol, 288.15 K
  solubility (mole fraction): 0.00078
In n-propanol, 293.15 K
  solubility (mole fraction): 0.0011
In n-propanol, 298.15 K
  solubility (mole fraction): 0.00171
In n-propanol, 303.15 K
  solubility (mole fraction): 0.00228
In n-propanol, 308.15 K
  solubility (mole fraction): 0.00357
In n-propanol, 313.15 K
  solubility (mole fraction): 0.00476
In n-propanol, 318.15 K
  solubility (mole fraction): 0.00621
In n-propanol, 323.15 K
  solubility (mole fraction): 0.00839
